Earlier results as cited in patent publication US20070250270A1, “Cellular predictive models for toxicities” (Cytokinetics, Inc., priority 2006, published 2007).
Starred links: 1 amine or outer side, 2 acyl side, 3 side chain; linkers in the order of their positions; H or OH if unused. Positions of bridges follow the written chain, without caps; N, C: chain ends. Non-standard residues stand in square brackets, D forms with d. Residues, ends and D or L forms follow the SMILES beside them. Trp(2-yl) = O=C([C@H](Cc1c([*:3])[nH]c2ccccc12)N[*:1])[*:2]; Leu(4R-OH,5-OH) = C[C@](O)(CO)C[C@H](N)C(=O)O; cisHyp = O=C(O)[C@@H]1C[C@H](O)CN1

Tests used:
bile flow = settings: rats

SMILES: C=C1[C@@H](C)[C@H]2[C@H](Cc3ccccc3)NC(=O)[C@]23OC(=O)/C=C/[C@H](O)CCC[C@@H](C)C/C=C/[C@H]3[C@@H]1O [cytochalasin B]
- effect on bile flow, resulting in cholestatic injury (bile flow): prompt arrest of bile flow

SMILES: C[C@@H]1NC(=O)[C@H](C[C@@](C)(O)CO)NC(=O)[C@@H]2Cc3c([nH]c4ccccc34)SC[C@H](NC(=O)[C@@H]([C@H](C)O)NC1=O)C(=O)N1C[C@@H](O)C[C@H]1C(=O)N[C@@H](C)C(=O)N2 [phalloidin] (cyclo(A[dT]C[cisHyp]A[Trp(2-yl)][Leu(4R-OH,5-OH)]); thioether 3-6)
- effect on filamentous F actin around canaliculi and tight junctions (filamentous F actin): increase in filamentous F actin around canaliculi and tight junctions
